Here are results for 7 molecules from patent publication EP0414533A1, “Use of iodopropargyl esters of alpha-amino acid derivatives as antimicrobial agents” (ROHM AND HAAS COMPANY, priority 1989, dated 1991).

In test [1] the test system is Aspergillus niger (ANIG). The test can be described thus: Minimum inhibitory concentration (MIC), broth two-fold serial dilution test. In kind it is cell-based. The note with it: Aspergillus niger.
For test [2], the system named is Aureobasidium pullulans (APUL). The description is as above. In kind it is cell-based. The note with it: Aureobasidium pullulans.
In test [3] the test system is Botrytis cinerea (BOC). The test is described as follows: In-vitro plant fungicide test. The test is classed as cell-based. The note with it: Botrytis cinerea, 25 ppm; Table IVa; *=Phytotoxic; read-out: % Control at 25 ppm BOC.
Test [4] concerns Fusarium roseum (FUS). The test is described as follows: In-vitro plant fungicide test. In kind it is cell-based. Conditions: Fusarium sambucinum, read-out: % Control at 25 ppm FUS, 25 ppm; Table IVa; *=Phytotoxic.
For test [5], the system named is Cochliobolus sativus (HEL). The test can be described thus: In-vitro plant fungicide test. The test is classed as cell-based. Conditions: Bipolaris sorokiniana, 25 ppm; Table IVa; *=Phytotoxic; read-out: % Control at 25 ppm HEL.
The test system of test [6] is Phytophthora capsici (PHY). The test is described as follows: In-vitro plant fungicide test. The test is classed as cell-based. Conditions: Phytophthora capsici; 25 ppm; Table IVa; read-out: % Control at 25 ppm PHY.
Test [7] concerns Piricularia oryzae (PIR). The test can be described thus: microbe, parasite or virus in culture. The test is classed as cell-based. Conditions: read-out: % Control at 25 ppm PIR.
For test [8], the system named is Pythium ultimum (PYU). The test can be described thus: In-vitro plant fungicide test. The test is classed as cell-based. The note with it: Globisporangium ultimum; 25 ppm; Table IVa; read-out: % Control at 25 ppm PYU.
Test [9] has as its system Rhizoctonia solani (RHI). The test is described as follows: In-vitro plant fungicide test. The test is classed as cell-based. The note with it: Rhizoctonia solani; 25 ppm; Table IVa; read-out: % Control at 25 ppm RHI.
Test [10] relates to Septoria nodorum (SEP). The test can be described thus: In-vitro plant fungicide test. The test is classed as cell-based. Conditions: Parastagonospora nodorum, 25 ppm; Table IVa; read-out: % Control at 25 ppm SEP.
The test system of test [11] is Xanthomonas campestris (XAN). The test is described as follows: In-vitro plant fungicide test. In kind it is cell-based. Conditions: Xanthomonas campestris; 25 ppm; Table IVa; read-out: % Control at 25 ppm XAN.
In test [12] the test system is THREE FUNGI. The test can be described thus: MIC test against three fungi in Mycophile Broth, pH 5.0, read after 8 days (Table VII). In kind it is cell-based. The note with it: 192 h.
Test [13] concerns Pseudomonas fluorescens (PSFL). The test can be described thus: Minimum inhibitory concentration (MIC), broth two-fold serial dilution test. Conditions: Pseudomonas fluorescens, read-out: MIC (G-) PSFL, M9G (minimal salts media with glucose).
Source text: When the test is ready to be done, each vessel in the dilution series, except the first vessel, contains an equal volume of compound free broth. The first vessel contains twice the volume of broth with the starting concentration of test compound. One half of the broth from the first vessel is transferred to the second vessel. After being mixed, one half the resulting volume is removed from the second vessel and transferred to the third vessel. The entire cycle is repeated sufficiently to give a series of concentrations amounting to 500, 250, 125, 63, 31, 16, 8, and 4 ppm (or 100, 50, 25, 12.5, 6.2, 3.1, 1.6, and 0.8), respectively.
Each vessel is then inoculated with a cell suspension of the appropriate test organism. Bacteria are grown in broth, fungi on agar slants for a time and at a temperature appropriate to the species being tested, and algae are a mixture of green algae and blue-green bacteria grown in a nutrient media. At the end of the growth period, in the case of bacteria, the broth is vortexed to disperse the cells.
The vessels are then incubated at the appropriate temperature. After the incubation, the vessels are examined for growth/no growth.
Test [14] deals with Pseudomonas aerugenosa (PSAE). The test is described as above. Conditions: Pseudomonas, read-out: MIC (G-) PSAE, M9G (minimal salts media with glucose).
In test [15] the test system is Escherichia coli (ECOL). The description is as above. The note with it: Escherichia coli, read-out: MIC (G-) ECOL, M9G (minimal salts media with glucose).
For test [16], the system named is Staphylococcus aureus (SAUR). The test is described as above. The note with it: Staphylococcus aureus, read-out: MIC (G+) SAUR, M9G (minimal salts media with glucose).
Where [17] appears, read: Aspergillus niger, pH 5, read-out: MIC ANIG, Aspergillus niger, serial dilutions from 50 ppm, read after 8 days of incubation.
The mark [18] stands for this setting: Aureobasidium pullulans, pH 5, read-out: MIC APUL, Aureobasidium pullulans, serial dilutions from 50 ppm, read after 8 days of incubation.
The mark [19] stands for this setting: Gloeophyllum trabeum, pH 5, read-out: MIC GTRA, Gloeophyllum trabeum, serial dilutions from 50 ppm, read after 8 days of incubation.
The mark [20] stands for this setting: Table IIIc, iodopropargyl esters of peptides.
Setting [21] is: M9G (minimal salts media with glucose), Table IIIc, iodopropargyl esters of peptides, read-out: MIC (F) ANIG.
[22] abbreviates: M9G (minimal salts media with glucose), Table IIIc, iodopropargyl esters of peptides, read-out: MIC (F) APUL.
Setting [23] is: Aspergillus niger, serial dilutions from 50 ppm, read after 8 days of incubation, read-out: MIC ANIG.
Setting [24] is: Aureobasidium pullulans, serial dilutions from 50 ppm, read after 8 days of incubation, read-out: MIC APUL.
Where [25] appears, read: Gloeophyllum trabeum, serial dilutions from 50 ppm, read after 8 days of incubation, read-out: MIC GTRA.

Converted amounts (≈) assume the structure as drawn. Counter-ions that a name gives are not always drawn. Like-named read-outs stand apart in the source and are kept apart here. Bounds are passed on as bounds.

For the molecule `C[C@H](N)C(=O)N[C@H](C(=O)OCC#CI)[C@@H](C)OCc1ccccc1` [Compound 21, L-alanyl-O-benzyl-L-threonine iodopropargyl ester trifluoroacetate], the minimal inhibitory concentration (MIC) (in general, the smallest concentration in the dilution series that meets the test's criterion for growth inhibition) in test [1] (read-out: MIC (F) ANIG, M9G (minimal salts media with glucose), Table IIIc, iodopropargyl esters of peptides) is less than 0.8 µg/mL; in test [2] (read-out: MIC (F) APUL, M9G (minimal salts media with glucose), Table IIIc, iodopropargyl esters of peptides), 1.6 µg/mL; in test [12] (setting [17]), 50 µg/mL; in [12] (setting [18]), greater than 50 µg/mL; in test [12] (setting [19]), 50 µg/mL; in test [13] (setting [20]) it was 100 µg/mL. For the same molecule, the MIC in test [14] (setting [20]) was 100 µg/mL; in test [15] (setting [20]), 100 µg/mL; in [16] (setting [20]), greater than 100 µg/mL. The inhibition of growth at 25 ppm in test [3] came out at 0%; in test [4] it was 0%; in test [5], 0%; in test [6], 100%; in [7], 100%; in test [8], 100%. For the same molecule, the inhibition of growth at 25 ppm in test [9] was determined as 100%; in test [10], 100%; in [11], 0%.

In the case of `C[C@H](NC(=O)OC(C)(C)C)C(=O)N[C@@H](COCc1ccccc1)C(=O)OCC#CI` [Compound 14, N-t-butoxycarbonyl-L-alanyl-O-benzyl-L-serine iodopropargyl ester], the MIC in test [1] (setting [21]) was 6 µg/mL; in test [2] (setting [22]), less than 0.8 µg/mL; in test [12] (setting [23]), 50 µg/mL (≈ 94.3 µM); in [12] (setting [24]), greater than 50 µg/mL; in [12] (setting [25]) it was 12.5 µg/mL (≈ 23.6 µM); in test [13] (setting [20]), 100 µg/mL. Besides, the minimum inhibitory concentration (MIC) in test [14] (setting [20]) is 50 µg/mL; in [15] (setting [20]), greater than 100 µg/mL; in test [16] (setting [20]), 100 µg/mL. For the same molecule, the inhibition of growth at 25 ppm in test [3] was 0%; in test [4], 100%; in [5] it was 50%; in test [6], 75%; in test [7], 100%; in [8], 0%. Moreover, the inhibition of growth at 25 ppm in test [9] amounted to 90%; in [10] it was 0%; in test [11] it was 0%.

In the case of `C[C@H](NC(=O)OC(C)(C)C)C(=O)N[C@@H](C)C(=O)OCC#CI` [Compound 13, N-t-butoxycarbonyl-L-alanyl-L-alanine iodopropargyl ester], the MIC in test [1] (setting [21]) was less than 0.8 µg/mL; in test [2] (setting [22]), less than 0.8 µg/mL; in [12] (setting [23]) it was 25 µg/mL (≈ 58.9 µM); in [12] (setting [24]) it was 50 µg/mL (≈ 118 µM); in [12] (setting [25]), 6.2 µg/mL (≈ 14.6 µM); in test [13] (setting [20]) it was 50 µg/mL. The MIC in [14] (setting [20]) was 50 µg/mL; in test [15] (setting [20]), 100 µg/mL; in test [16] (setting [20]), 50 µg/mL. Besides, the inhibition of growth at 25 ppm came out at 50% in test [3]; 100% in [4]; 100% in test [5]; 100% in test [6]; 100% in test [7]; 100% in [8]. Moreover, the inhibition of growth at 25 ppm in [9] worked out at 100%; in test [10] it was 100%; in test [11] it was 0%.

For `C[C@H](NC(=O)OC(C)(C)C)C(=O)OCC#CI` [Compound 2, N-t-butoxycarbonyl-L-alanine iodopropargyl ester], the MIC came to 3 µg/mL in [1] (M9G (minimal salts media with glucose), Table IIIa, read-out: MIC (F) ANIG); 3 µg/mL in [2] (M9G (minimal salts media with glucose), Table IIIa, read-out: MIC (F) APUL); 3.2 µg/mL (≈ 9.06 µM) in test [12] (setting [23]); 25 µg/mL (≈ 70.8 µM) in test [12] (setting [24]); 1.6 µg/mL (≈ 4.53 µM) in test [12] (setting [25]); 50 µg/mL in [13] (Table IIIa). For the same molecule, the MIC was greater than 100 µg/mL in test [14] (Table IIIa), greater than 100 µg/mL in [15] (Table IIIa) and 50 µg/mL in test [16] (Table IIIa). For the same molecule, the inhibition of growth at 25 ppm in [3], in [4], in test [5], in test [6], in test [7] and in test [8] was 100% throughout. Further, the inhibition of growth at 25 ppm in test [9] is 100%; in test [10], 100%; in test [11] it was 0%.

In the case of `C[C@H](NC(=O)OC(C)(C)C)C(=O)N[C@H](C(=O)OCC#CI)[C@@H](C)OCc1ccccc1` [Compound 16, N-t-butoxycarbonyl-L-alanyl-O-benzyl-L-threonine iodopropargyl ester], the MIC in [1] (setting [21]) is 13 µg/mL; in [2] (setting [22]) it was less than 0.8 µg/mL; in test [12] (setting [23]), greater than 50 µg/mL; in test [12] (setting [24]), greater than 50 µg/mL; in [12] (setting [25]), 25 µg/mL (≈ 45.9 µM); in test [13] (setting [20]), greater than 100 µg/mL. The MIC in [14] (setting [20]) was greater than 100 µg/mL; in test [15] (setting [20]) it was greater than 100 µg/mL; in test [16] (setting [20]), 6 µg/mL. The inhibition of growth at 25 ppm in test [3] was 0%; in [4] it was 0%; in [5], 0%; in [6] it was 0%; in [7], 100%; in test [8], 100%. In addition, the inhibition of growth at 25 ppm amounted to 100% in [9], 100% in test [10] and 0% in test [11].

`N[C@@H](CSCc1ccccc1)C(=O)OCC#CI` [Compound 10, S-benzyl-L-cysteine iodopropargyl ester trifluoroacetate]: the MIC in test [1] (read-out: MIC (F) ANIG, M9G (minimal salts media with glucose), Table IIIa) is 3 µg/mL; in [2] (read-out: MIC (F) APUL, M9G (minimal salts media with glucose), Table IIIa), 6.3 µg/mL; in test [12] (setting [17]) it was 6.2 µg/mL; in [12] (setting [18]) it was 12.5 µg/mL; in test [12] (setting [19]), 6.2 µg/mL; in [13] (Table IIIa) it was greater than 100 µg/mL. The MIC in test [14] (Table IIIa) was 100 µg/mL; in test [15] (Table IIIa), greater than 100 µg/mL; in [16] (Table IIIa), greater than 100 µg/mL. The inhibition of growth at 25 ppm in test [3] worked out at 0%; in test [4], 100%; in test [5], 50%; in test [6] it was 100%; in [7] it was 100%; in test [8], 100%. The inhibition of growth at 25 ppm in test [9] was found to be 100%; in test [10], 100%; in [11], 0%.

Consider `C[C@H](NC(=O)OC(C)(C)C)C(=O)NCC(=O)OCC#CI` [Compound 12, N-t-butoxycarbonyl-L-alanylglycine iodopropargyl ester], for which the MIC in test [1] (setting [21]) was 6 µg/mL; in [2] (setting [22]), less than 0.8 µg/mL; in [12] (setting [23]), 25 µg/mL (≈ 60.9 µM); in [12] (setting [24]) it was greater than 50 µg/mL; in test [12] (setting [25]), 6.2 µg/mL (≈ 15.1 µM); in test [13] (setting [20]), 50 µg/mL. In addition, the MIC in [14] (setting [20]), in [15] (setting [20]) and in [16] (setting [20]) was 50 µg/mL in each case. Also, the inhibition of growth at 25 ppm in [3] was 0%; in test [4], 0%; in test [5], 0%; in [6], 100%; in [7], 100%; in [8], 100%. For the same molecule, the figures for the inhibition of growth at 25 ppm in [9], in [10] and in test [11] were 100%, 95% and 0%, respectively.
